Data on four compounds can be found in patent US8012995B1, “Pharmaceutically active sulfonamide derivatives” (Merck Serono SA, priority 1999, dated 2011).

Molecules are shown by their SMILES.

One series concerns the target p38 (Homo sapiens, UniProt Q16539). Description: p38 in vitro kinase assay (SPA, GST-ATF2 substrate). Type of series: biochemical. As to conditions: amount necessary to achieve 50% inhibition. The procedure:
(§1) JNK 2 and 3 in vitro assays: JNK3 and/or 2 assays are performed in 96 well MTT plates, by incubation of 0.5 μg of recombinant pre-activated GST-JNK or GST-JNK2 with 1 μg of recombinant, biotinylated GST-c-Jun and 2 μM ^33γ-ATP (2 nCi/μl), in the to presence or absence of sulfonamide inhibitors if formula I and in a reaction volume of 50 μl containing 50 mM Tris-HCl, pH 8.0; 10 mM MgCl2; 1 mM Dithiothreitol, and 100 μM NaVO4. The incubation is performed for 120 min. at R.T and stopped upon addition of 200 μl of a solution containing 250 μg of Streptavidine-coated SPA beads (Amersham, Inc.)^•, 5 mM EDTA, 0.1% Triton X-100 and 50 μM ATP, in phosphate saline buffer. After incubation for 60 minutes at RT, beads are sedimented by centrifugation at 1500×g for 5 minutes, resuspended in 200 μl of PBS containing 5 mM EDTA, 0.1% Triton X-100 and 50 μM ATP and the radioactivity measured in a scintillation β counter, following sedimentation of the beads as described above. By substituting GST-c Jun for biotinylated GST-1ATF2 or myelin basic protein, this assay can be used to measure inhibition of preactivated p38 and ERK MAP Kinases, respectively.
(§2) The values indicated in respect of JNK2 and 3, p38 and ERK2 refer to the IC50 (μM), i.e. the amount necessary to achieve 50% inhibition of said target (e.g. JNK2). From the above table it could be derived that said test compounds according to formula I do have a significant effect both on JNK2 and 3, but virtually no effect onto p38 and ERK2, thus delivering a quite selective inhibitory effect.

A further series relates to Hlr c-Jun HeLa cells. Kind of series: C-Jun reporter assay (Dual-Luciferase). Format: cell-based. To be noted: Homo sapiens, Hlr c-Jun HeLa cells transfected with pMEKK1. As for the experimental part: Hlr c-Jun HeLa cells are cultured in DMEM High Glc supplemented with 10% FCS (Sigma), 2 mM Glutamine (Gibco), P/S, Hygromycin b 100 μg/mL and G418 250 μg/mL
The cell suspension are diluted with medium to give about 3.5×10^6 cells/mL and 1 mL of cell suspension are put onto 2 10 cm culture dishes containing 9 mL of culture medium.
• Control: 0.2 μg pTK Renilla, 5.8 μg pBluescript KS, 500 μl OPTIMEM (GIBCO), 18 μl Fugene 6 • Induced: 0.1 μg pMEKK1, 0.2 μg pTK Renilla, 5.7 μg pBluescript KS, 500 μl OPTIMEM (GIBCO), 18 μl Fugene 6 30′ RT
The transfection mixture is added to the plated cells. The plates are incubated over night at 37° C. in a humidified atmosphere of 5% CO2 in air
A 96 wells plate containing 100 μl of culture medium per well is prepared
Negative control (vehicle): 2 μl of DMSO is added to the 100 μl (in triplicate).
Compound: 2 μl of Hit compound stock dilution are added to the 100 μl (in triplicate).
The transfected cells are trypsinised and ressuspend in 12 mL of culture medium.
100 μl of the dilution are added to each of the 96 wells plate.
The plate is incubated over night at 37° C. in a humidified atmosphere of 5% CO2 in air
Dual-Luciferase™ Reporter Assay System (Promega)
The medium is removed from the plate and the cells washed two times with 100 μl PBS Completely remove the rinse solution before applying PLB reagent. Dispense into each culture well […] of 1×PLB. Place the culture plates on a rocking platform or orbital shaker with gentle
rocking/shaking to ensure complete and even coverage of the cell monolayer with 1×PLB. Rock the culture plates at room temperature for 15 minutes. Transfer 20 μl of the lysate into a white opaque 96 wells plate. Read in a luminometer.
• Inject 50 μl of Luciferase Assay Reagent II wait 5″, read 10″ • Inject 50 μl of Stop & Glo® Reagent wait 5″, read 10″ Check RLU Luciferase/RLU Renilla *1000
For orientation: In a reporter assay the amount or activity of a reporter protein is the signal.

Series [1] concerns IL-2 release by PMA+Iono-stimulated Jurkat cells. Kind of series: IL-2 release assay (ELISA). To be noted: Homo sapiens, PMA+Ionomycine-stimulated Jurkat cells, 24 hours, read-out: % Inhibition of IL2 Production @3 uM. Type of series: cell-based. The procedure: Jurkat cells, a human T cell leukemia cell line (American Type Culture Collection # TIB 152) were cultured in RPMI 1640 medium (Gibco, BRL) supplemented with 10% of […] FCS, Glutamine and Penstrep. The cell suspension in the medium is diluted to give 2.10^6 cells/mL. The cells were plated (2.10^5 cells/well) on a 96-well plate containing different concentration of test compound (final concentration of compounds, 10, 3, 1, […], 0.1 μM). This mixture is incubated 30 minutes at 37° C. in a humidified CO2 atmosphere. Cells were then treated with 10 ul PMA+Ionomycine (0.1 μM and 1 μM final concentration) in all wells except negative control. In wells without compounds, 10 μl of RPMI 2% DMSO (=0.1% final) is added. Cells are incubated 24 hours at 37° C. and then the supernatant harvested (freeze at −20° C. if not used the same day) prior to performing IL-2 ELISA test on the supernatant.
IL-2 release into the medium by PMA+Iono-stimulated Jurkat cells, in presence or absence of test compounds is assayed by ELISA. Following the procedure described below
Transfer 100 μl capture antibody diluted in PBS at 5 μg/mL into a 96 well ELISA plate and incubate overnight at room temperature.
Aspirate each well and wash 3 times with Wash buffer. After the last wash, damp the plate.
1. Saturate with 200 μl PBS-10% FCS. Incubate 1 hour at room temperature.
2. Repeat the wash step 2.
• 1. Add 100 μl of sample or standard ([…]) and incubate 2 hours at room temperature. • 2. Wash 3 times. • 3. Add 100 μl of biotinylated anti-human IL-2 at 12.5 ng/mL. Incubate 2 hours at room temperature. • 4. Wash 3 times. • 5. Add 100 μl streptavidin-HRP (Zymed #43-4323) at 1:10′000. Incubate 30 minutes at room temperature. • 6. Wash 3 times • 7. Add 100 μl substrate solution (citric acid/Na2HPO4 (1:1)+H2O2 1:2000+OPD). Incubate 20-30 minutes at room temperature. • 8. Add 50 μl of stop solution to each well. • 9. Determine optical density using a microliter plate reader set to 450 nm with correction at 570 nm.
(An ELISA detects its analyte on a solid surface through an enzyme-linked reagent.)

The next series concerns the target JNK3 (Homo sapiens, UniProt P53779). Description: JNK3 in vitro assay (SPA, GST-c-Jun phosphorylation). Type of series: biochemical. To be noted: amount necessary to achieve 50% inhibition, GST-c-Jun substrate. As for the experimental part: as §1, §2
For another series, the target named is JNK2 (Homo sapiens, UniProt P45984). Kind of series: JNK2 in vitro assay (SPA, GST-c-Jun phosphorylation). Type of series: biochemical. As to conditions: amount necessary to achieve 50% inhibition, GST-c-Jun substrate. The procedure:
as §1, §2

In a further series the target is ERK2 (Homo sapiens, UniProt P28482). Kind of series: ERK2 in vitro kinase assay (SPA, myelin basic protein substrate). Type of series: biochemical. As to conditions: amount necessary to achieve 50% inhibition. As for the experimental part: as §1, §2
Sequence of ERK2 (P28482 whole entry, species assumed): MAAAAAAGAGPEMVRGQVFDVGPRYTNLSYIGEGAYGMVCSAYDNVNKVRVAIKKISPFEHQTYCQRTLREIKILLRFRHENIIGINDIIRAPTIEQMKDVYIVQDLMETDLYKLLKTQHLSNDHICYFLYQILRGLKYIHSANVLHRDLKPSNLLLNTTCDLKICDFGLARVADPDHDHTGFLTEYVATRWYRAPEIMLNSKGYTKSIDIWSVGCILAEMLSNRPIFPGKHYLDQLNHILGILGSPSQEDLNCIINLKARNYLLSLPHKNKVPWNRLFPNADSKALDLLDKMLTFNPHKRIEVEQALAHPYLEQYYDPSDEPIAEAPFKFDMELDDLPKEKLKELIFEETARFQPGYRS

Sequence of JNK3 (P53779 whole entry, species assumed): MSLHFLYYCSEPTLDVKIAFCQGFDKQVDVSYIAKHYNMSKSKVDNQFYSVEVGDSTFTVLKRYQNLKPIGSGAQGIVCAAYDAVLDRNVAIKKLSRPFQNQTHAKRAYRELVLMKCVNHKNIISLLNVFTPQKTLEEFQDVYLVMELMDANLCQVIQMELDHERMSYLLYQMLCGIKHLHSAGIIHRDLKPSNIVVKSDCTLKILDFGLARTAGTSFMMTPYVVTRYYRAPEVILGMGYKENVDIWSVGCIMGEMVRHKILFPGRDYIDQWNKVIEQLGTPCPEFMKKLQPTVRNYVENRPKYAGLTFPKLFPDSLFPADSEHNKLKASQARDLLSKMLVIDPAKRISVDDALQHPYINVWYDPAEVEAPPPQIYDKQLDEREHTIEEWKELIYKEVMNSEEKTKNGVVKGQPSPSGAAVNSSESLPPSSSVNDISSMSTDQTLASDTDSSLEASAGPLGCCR
Sequence of JNK2 (P45984 whole entry, species assumed): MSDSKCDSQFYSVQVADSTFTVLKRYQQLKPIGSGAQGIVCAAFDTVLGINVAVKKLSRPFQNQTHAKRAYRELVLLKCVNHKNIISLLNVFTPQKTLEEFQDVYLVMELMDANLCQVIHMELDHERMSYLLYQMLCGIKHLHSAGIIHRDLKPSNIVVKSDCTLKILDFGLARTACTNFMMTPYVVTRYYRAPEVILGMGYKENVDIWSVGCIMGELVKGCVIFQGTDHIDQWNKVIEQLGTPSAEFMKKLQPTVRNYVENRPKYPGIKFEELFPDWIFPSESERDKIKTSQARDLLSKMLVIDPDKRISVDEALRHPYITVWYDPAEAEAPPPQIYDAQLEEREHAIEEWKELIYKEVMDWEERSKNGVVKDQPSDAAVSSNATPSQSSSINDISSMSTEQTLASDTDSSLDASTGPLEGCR
Sequence of p38 (Q16539 whole entry): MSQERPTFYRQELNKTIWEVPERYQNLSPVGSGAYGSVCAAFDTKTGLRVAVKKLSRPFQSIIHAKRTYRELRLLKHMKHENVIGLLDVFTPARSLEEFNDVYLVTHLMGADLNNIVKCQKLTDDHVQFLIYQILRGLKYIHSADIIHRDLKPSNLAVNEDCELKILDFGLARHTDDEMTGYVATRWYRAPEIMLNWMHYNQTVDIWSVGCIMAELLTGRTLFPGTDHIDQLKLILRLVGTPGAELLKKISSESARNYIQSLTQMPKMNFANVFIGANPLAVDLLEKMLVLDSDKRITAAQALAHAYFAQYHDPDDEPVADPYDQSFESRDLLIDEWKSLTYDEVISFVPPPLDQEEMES

One may read the melting point as the temperature, or range, at which the solid turns liquid. The compound `O=C(NCc1ccc(S(=O)(=O)N2CCC(Nc3cccc(S(=O)(=O)C(F)(F)F)c3)CC2)s1)c1ccc(Cl)cc1` [Example 2, 4-Chloro-N-{5-[4-(3-Trifluoromethanesulfonyl-phenylamino)-piperidine-1-sulfonyl]-thiophen-2-ylmethyl}-benzamide] returned a melting point of 198 to 199 °C.
The term IC50 denotes the concentration that inhibits the measured activity by half. The low end stands for higher potency, the high end for lower potency. Broadly, the inhibition is how much of the control response was suppressed. On to `CCCc1cccc(NC2CCN(S(=O)(=O)c3ccc(CNC(=O)c4ccc(Cl)cc4)s3)CC2)c1` [Example 110, 4-chloro-N-{[5-({4-[3-propylanilino]piperidin-1-yl}sulfonyl)thien-2-yl]methyl}benzamide], for which the melting point was in the range of 169 to 170 °C. The IC50 against p38 was > 30 µM. For the same compound, in the series on Hlr c-Jun HeLa cells, the inhibition at 10 µM is > 30%. In addition, the inhibition at 3 µM in series [1] is > 30%. This compound also registered an IC50 on JNK3 of 0.11 µM. On JNK2, this compound came in with an IC50 of 0.31 µM. Moreover, on ERK2, the half-maximal inhibitory concentration (IC50) was > 30 µM.
Take `O=C(NCc1ccc(S(=O)(=O)N2CCC(n3nnc4ccccc43)CC2)s1)c1ccccc1O` [Example 271, N-[(5-{[4-(1H-1,2,3-benzotriazol-1-yl)piperidin-1-yl]sulfonyl}thien-2-yl)methyl]-2-hydroxybenzamide]: the IC50 against p38 is > 30 µM; on JNK3, 0.36 µM; against JNK2 it was 0.22 µM; against ERK2, > 30 µM. The inhibition at 10 µM with Hlr c-Jun HeLa cells is > 30%. The inhibition at 3 µM in series [1] was > 30%.
As for `COc1cccc(C(=O)NCc2ccc(S(=O)(=O)N3CCC(Nc4ccccc4[N+](=O)[O-])CC3)s2)c1` [Example 285, N-({5-[(4-{2-nitroanilino}piperidin-1-yl)sulfonyl]thien-2-yl}methyl)-3-methoxybenzamide], the IC50 at p38 is > 30 µM; against JNK3, 0.19 µM; against JNK2, 0.23 µM; on ERK2 it was > 30 µM. In the series with Hlr c-Jun HeLa cells, the inhibition at 10 µM was > 30%. Besides, the inhibition at 3 µM in series [1] was > 30%.
